Measured values published in PubChem BioAssay AID449764 (Southern Research Specialized Biocontainment Screening …, 2010).

Test system: Mycobacterium tuberculosis H37Rv growth inhibition, no glycerol
Assay: Confirmatory growth inhibition assay, Mycobacterium tuberculosis H37Rv, absence of glycerol (AID 449764);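 note: growth read after 7 days of incubation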
Details: for IC90: measured here: IC90 growth inhibition

| Structure (SMILES) | IC50 [µM] | IC90 [µM] |
| --- | --- | --- |
| CCC(=O)N1c2ccc(S(=O)(=O)CCC(=O)N3CCn4c3nc3ccccc34)cc2CC1C (configuration not stated) | 23.4 | 27.5 |
| CCOC(=O)C1CCN(C(=O)CSCc2nc(-c3ccc(OCC)cc3)oc2C)CC1 | 46 | 49.2 |
| COc1ccc(NC(=O)CN(C)CC(=O)Nc2sc3c(c2C(N)=O)CCC3)cc1 | 82.4 | > 100 |
| O=C(COC(=O)C1=COCCO1)NCc1ccc(Cl)cc1 | 28.1 | > 100 |
| O=C(Nc1ccn(Cc2ccccc2F)n1)c1ccc(COc2ccccc2Cl)cc1 | 11.2 | 16.1 |
| O=C(c1cc2cc(Cl)ccc2[nH]1)N1CCN(Cc2ccc3c(c2)OCO3)CC1 | 24.2 | > 25 |
| CNC[C@@H](Cc1ccccc1)NC[C@@H](CC1CCCCC1)NCCCc1ccccc1 | 7.99 | 9.68 |
| Cn1ncnc2c(=O)n(C)c(=O)nc1-2 | 2.84 | 4.51 |
| CCOC(=O)c1nn(-c2ccc(C)cc2)c2nc(Nc3ccccc3)cc(=O)n12 | 12 | 13.6 |
| COc1cc2nc(N3CCN(c4cc(C)ccc4C)CC3)nc(N)c2cc1OC | 15.3 | 18.7 |
| CC1=NN(C(=O)c2ccc(Br)cc2)C(O)(c2ccccc2)C1 (configuration not stated) | 42.3 | 52.6 |
| C/C(=N\NC(=O)c1nnn(-c2nonc2N)c1CN(C)c1ccccc1)c1ccccn1 | 11.9 | 13.6 |
| CCN1CCN(Cc2ccc(NC(=O)c3cc(NC(=O)c4cncc(-c5cccs5)c4)cc(OC)c3)cc2C(F)(F)F)CC1 | 10.3 | 16.5 |
| O=C(Nc1nnc(-c2ccccc2Cl)o1)c1nc2ccccc2s1 | 6.33 | 7.21 |
| CCCCn1c(O)c(/C=C2/C=CC=N2)c(=O)[nH]c1=O | 12.1 | 23.6 |
| Cc1cc(=O)oc2c(C)c(OCC(=O)N3CCN(C(=O)C4COc5ccccc5O4)CC3)ccc12 (configuration not stated) | 77.1 | > 100 |
| CCN1CCN(CCCNC(=O)c2ccc(/C=C3/Oc4ccccc4N(Cc4cccc(C)c4)C3=O)cc2)CC1 | 45.2 | 48.1 |
| CN1CCN(Cc2nc3ccccc3c(=O)n2Cc2nc(-c3ccc4ccccc4c3)cs2)CC1 | 20.7 | 28.5 |
| COc1ccc(N/C=C/C(=O)c2sc(-c3ccccc3)nc2C)cc1 | 79.3 | > 100 |
| Cc1cc2c(cc1C)/C(=N/NC(=O)c1ccccn1)CCC2 | 24.2 | 53.6 |
| Cc1sc2ncnc(N3CCC(C(=O)NCC(=O)Nc4ccc(F)c(F)c4)CC3)c2c1C | 46.7 | 53.1 |
| Clc1ccc(-c2[nH]ncc2N=Nc2ccccc2)cc1 | 63.1 | > 100 |

| Structure (SMILES) | IC50 [µM] | IC90 [µM] |
| --- | --- | --- |
| c1ccc(CCN2CCN(c3ncnc4c3cnn4-c3ccccc3)CC2)cc1 | 47.7 | 91.1 |
| Cc1oc2c(c1C(=O)NCc1cccnc1)C(=O)c1ccccc1C2=O | 12.3 | 14.2 |
| O=C(/C=C/c1ccco1)Oc1ccc(C(=S)N2CCOCC2)cc1 | 60.3 | > 100 |
| Nc1ccc(C(=O)OCCCc2nc3cc4ccccc4cc3[nH]2)cc1 | 37.2 | 59.3 |
| Cc1ccc(NS(=O)(=O)c2ccc(NC(=O)CN(c3cc([N+](=O)[O-])ccc3C)S(C)(=O)=O)cc2)c(C)c1 | 33.1 | > 100 |
| CCCCN(C)C(=O)Cc1c(OC)ccc2cc(Br)ccc12 | 24.4 | 33.5 |
| COc1ccc(C(=O)c2c(C(F)(F)F)oc3c2C(=O)c2ccccc2C3=O)cc1OC | 16.7 | 22.1 |
| COc1cccc(NC(=S)/C(=C(\[O-])c2cc(C)n(-c3ccccc3F)c2C)[n+]2ccc(N(C)C)cc2)c1 | 70.2 | 90.3 |
| CC(C)(C)C(=O)NC(=S)NNC(=O)c1sc2ccccc2c1Cl | 43.9 | > 100 |
| CCN(CC)C(=O)Oc1ccc2c(=O)c(-c3ccc(OC)cc3)coc2c1 | 52.8 | > 100 |
| Cc1ccc(/C=C(\NC(=O)c2ccc(C)cc2)c2nc(=S)[nH][nH]2)cc1 | 45.6 | 49.5 |
| Cc1cc2cc(CNC(=O)NC3CCCCC3)ccc2[nH]1 | 36 | 53.7 |
| O=C(C[n+]1ccc(C(=O)N/N=C/c2ccc(O)cc2)cc1)c1ccccc1 | 9.55 | > 100 |
| COc1ccc(C2c3[nH]c4ccccc4c3CCN2C(=O)c2cc3ncccn3n2)c(F)c1 (configuration not stated) |  | > 100 |
| CC1CCN(c2nc(Cl)nc(Nc3ccc([N+](=O)[O-])cc3)n2)CC1 | 78.9 | > 100 |
| O=[N+]([O-])c1cn(-c2nc(-c3ccco3)cc(C(F)(F)F)n2)cn1 | 3.79 | > 100 |
| Cc1cc(C)cc(NC(=O)c2ccc(Cn3nc(C)c(Cl)c3C)o2)c1 | 34.8 | 48.3 |
| O=c1c(Cl)nc2cc(Cl)ccc2n1CCNc1ncc(C(F)(F)F)cc1Cl | 2.97 | 3.37 |
| CCCCOC(=O)CCN1C(=O)/C(=C2\SC(=S)N(CCC(=O)OCCCC)C2=O)SC1=S | 5.44 | 10.6 |
| O=C(NCc1nnnn1-c1ccc(F)cc1)c1ccc([N+](=O)[O-])o1 | 53.7 | > 100 |
| CS(=O)(=O)c1nc(-c2ccccc2)cc(C(F)(F)F)n1 | 18 | 27.6 |
| Cc1ccc(C)c(-c2nnc(NC(=O)C3=COCCO3)o2)c1 | 13.9 | 30.2 |

| Structure (SMILES) | IC50 [µM] | IC90 [µM] |
| --- | --- | --- |
| Cn1nc(C(C)(C)C)cc1NC(=O)Nc1cc(Cl)cc(Cl)c1 | 18.2 | 25.6 |
| CO[C@@H]1[C@@H](OC(N)=O)[C@@H](O)C(Oc2ccc3c(O)c(NC(=O)c4ccc(O)c(CC=C(C)C)c4)c(=O)oc3c2C)OC1(C)C (some centres not stated) | 9.33 | 14.5 |
| CCc1ccc2nc(N(CCCN(C)C)C(=O)c3ccc(S(=O)(=O)N4CCCc5ccccc54)cc3)sc2c1 | 35 | 41 |
| Cc1onc(-c2ccccc2Cl)c1C(=O)Oc1cccc2cccnc12 | 3.38 | 3.98 |
| CCC1=C(OC(=O)N(CC)CC)N2C(=O)OC(=NCCc3c[nH]c4ccccc34)[C@]2(Cc2ccccc2)[C@H]2C1=CC[C@H]1C(=O)NC(=O)[C@H]12 | 30.6 | 45.7 |
| O=C(CSc1ccccn1)Nc1nonc1[N+](=O)[O-] | 5.73 | 6.24 |
| CC(C)(C)NC(=O)COC(=O)c1cc(Br)ccc1Cl | 24.3 | 45.4 |
| CSc1ccc(CNC(=O)c2ccc(NC(=O)C3=CSCCO3)cc2)cc1 | 7.07 | 25.5 |
| O=[N+]([O-])c1ccc(S(=O)(=O)c2ccccc2)nc1 | 1.76 | 2.98 |
| Cc1ccc(OC/C(O)=C(\C#N)c2nc3ccccc3s2)cc1 | 25.7 | 41.1 |
| CCOC(=O)CSc1nnc(-c2ccc(S(=O)(=O)NCc3cccs3)cc2)o1 | 5.1 | 7.29 |
| Cc1nc(-c2ccccc2)sc1C(=O)/C=C/c1ccccc1 | 12.4 | 13.6 |
| Clc1ccc2c(c1)C(c1ccccc1Cl)=NCc1nnc(N3CCN(CCOc4ccccc4)CC3)n1-2 | 34.8 | 46.1 |
| Cc1ccc(-c2noc(C3CCCN(C(=O)c4ccc(C(C)(C)C)cc4)C3)n2)o1 (configuration not stated) | 53.9 | 82.6 |
| CCN1C(N(C)CCc2c[nH]c3ccccc23)=N[C@@H](c2cccc(C(F)(F)F)c2)C(C(=O)OC)=C1C | 22 | 25 |
| O=C1c2ccccc2CC1Sc1nnc(-c2ccncc2)o1 (configuration not stated) |  | > 100 |
| COc1cc2ccccc2cc1C(=O)Nc1ccc(Cc2ccncc2)cc1 | 18.9 | 27.3 |
| C(C#CCCCCCCCCC[n+]1ccccc1)#CCCCCCCCCC[n+]1ccccc1 | 4.02 | 6.85 |
| Cc1ccccc1N/N=C/c1c(C)nc2ccccn12 | 57.8 | 72.5 |
| Cc1ccc(C2=NCCn3c2c2ccccc2[n+]3[O-])cc1 | 24.5 | 31.7 |
| COc1ccc(N=c2ssnc2Cl)cc1 | 90.6 | > 100 |
| CCOc1ccc(N2C=Nc3ccc(OCC)cc3C2)cc1 | 79.2 | > 100 |

| Structure (SMILES) | IC50 [µM] | IC90 [µM] |
| --- | --- | --- |
| CCCC[C@@H](CN[C@H](C)CNC)NCC1CCC(C(C)(C)C)CC1 (some centres not stated) | 23.2 | 26.4 |
| Cc1cc(/C=N/n2cnnc2)c(C)n1-c1ccc(OCc2ccc(Cl)cc2Cl)cc1 | 17.6 | 21.5 |
| CN1C2CCC1/C(=C/c1ccccn1)C(=O)/C2=C\c1ccccn1 | 23.4 | 26.8 |
| COc1ccc(-c2cc(-c3ccc(OC)cc3)[nH]n2)cc1 |  | > 50 |
| Cc1nn(-c2ccccc2)c(N)c1C(c1ccc(C(C)C)cc1)c1c(C)nn(-c2ccccc2)c1N | 22.9 | 25.8 |
| O=C(CCl)N1CCN2C(=O)c3ccccc3C12c1ccc(Cl)cc1 (configuration not stated) | 21.9 | 32.1 |
| Cc1ccc(C)c(NC(CC(=O)c2ccccc2)C(=O)OCC(=O)c2cccs2)c1 (configuration not stated) | 11.1 | 11.7 |
| OCCCNc1cc(-c2ccnc(Nc3cccc(Cl)c3)n2)ccn1 | 73.3 | 96 |
| Cc1ccc(NC(=O)c2cnc(SCC(=O)NCC3CCCO3)n(C)c2=O)cc1C (configuration not stated) | 32 | > 100 |
| CC(C)CC[n+]1ccccc1/C=C/c1ccc(N(C)C)cc1 | 10.2 | 15.4 |
| CCOC(=O)Cn1c(C)c(Br)c(=O)c2cccc(C)c21 | 23 | 26.6 |
| N#C/C(=N/Nc1ccc(OC(F)(F)F)cc1)C(N)=S | 1.19 | 1.74 |
| CCOC(=O)N1CCc2c(sc(NC(=O)c3ccc(Cl)s3)c2C(N)=O)C1 | 6.96 | 19.1 |
| CCCNc1nc(-c2cc(C(=O)Nc3ccccc3)on2)cc(C(C)C)n1 | 42.5 | 68.9 |
| O=[N+]([O-])c1ccc(CN2CCN(c3ccc(Cl)cc3)CC2)o1 | 0.44 | > 100 |
| Cc1ccc2nc3c(cc(C(=O)NCc4ccco4)c(=N)n3Cc3ccco3)c(=O)n2c1 | 53.6 | > 100 |
| CC(C)C1N=C(c2ccc3c(c2)OCO3)CC(c2ccccc2O)N1 (configuration not stated) | 44.7 | 50.9 |
| Cc1ccc(S(=O)(=O)n2ccc3c(OCCOCCNCc4ccc(F)cc4)cccc32)cc1 | 23 | 26 |
| O=C(CSc1nc2ncc(Br)cc2[nH]1)Nc1ccc2c(c1)OCO2 | 25.1 | > 100 |
